# Measurements reported in US11839679B2, “Gamma-diketones for treatment and prevention of aging skin and wrinkles” (BioSplice Therapeutics, Inc., priority 2014, dated 2023).
# System: fine lines, wrinkles in the outer canthus of the eyes (crow's feet area)
# Assay: Change in Roughness and Wrinkle Depth via Visioscan, Example 2
# Format: in vivo, human
# Conditions: Topical 0.05% in Oil (Cohort 2), 21 test subjects
# Description: Surface Evaluation of Living Skin Visioscan: The Visioscan (Courage and Khazaka) took a direct image of the living skin using a measuring head containing a CCD-camera and two metal halogen lamps positioned opposite each other in order to ensure even illumination of the measuring field on the skin (Skin Pharmacol Appl Skin Physiol (1999), 12(1-2), 1-11 and Cosmetic & Toiletries magazine (2009), 124(6), 51-54). The grey level distribution of the pixels in the image correspond to different phenomena (white pixels represent desquamation on the skin, dark pixels represent lines and wrinkles). The software with the Visioscan automatically calculates skin smoothness, skin roughness, scaliness and wrinkle parameters. Visioscan images were taken at the following time points: Baseline Day 0 (beginning of the study), Week 2, Week 4, Week 8, and Week 12 (end of the test).
# The source data was Visioscan and PhotoGrammetrix Image Analysis readings along with subjective assessments, which were totaled and reported as average scores. Photographs were placed side by side as to compare the photographs of before and after application of the test product in the eye area. Wrinkle reduction analysis source data consisted of crow's feet area quantification in relative units (px), collected at baseline and, the week 2, 4, 8 and 12 evaluations. The data obtained via Visioscan and from PhotoGrammetrix Image Analysis was quoted as % differences from baseline at each of the previously described time points. A paired t-test analysis was conducted in order to compare the results of post test product application measurements to baseline measurements where applicable. Statistical significance was established if p≤(α=0.05) was calculated.
# Four groups of women were recruited to evaluate and compare the efficacy of four anti-aging test products (targeting the periorbital eye area) intended to reduce the appearance of fine lines, wrinkles in the outer canthus of the eyes (crow's feet area) over a 12 week period. Wrinkle assessment was conducted instrumentally using a Visioscan image analysis system. Effectiveness of the test product was evaluated using panelist self-assessment via questionnaire responses. Each stage in the progression of treatments was photographically documented using High Resolution Scientifically Matched Photography technique. Image analysis was utilized to quantify changes in fine lines and crow's feet condition observed in the Scientifically Matched Photographs.
# Subject Selection: • Number: Eighty three subjects (twenty or twenty one per group) to complete the study. • Sex: Females • Race: Caucasian/Asian/Hispanic • Age Range: 40 through 60 years old
# Test samples: • Topical 0.15% of Compound #222 in Oil (a 50/50 mixture of Propylene Glycol Dicaprylate/Dicaprate and Caprylic/Capric Triglyceride) (Cohort 1) • Topical 0.05% of Compound #222 in Oil (a 50/50 mixture of Propylene Glycol Dicaprylate/Dicaprate and Caprylic/Capric Triglyceride) (Cohort 2) • Topical 0.15% of Compound #222 in PEG400 (Cohort 3) • Topical 0.05% of Compound #222 in PEG400 (Cohort 4)
# The testing protocol and evaluation was the same as in Example 1.
compound,measurement,setting,value
O=C(CCC(=O)c1ccc2c(c1)OCO2)c1ccccc1 [#222],"% Change in Roughness, Mean",Week 8 vs baseline,−32.9%
same,"% Change in Roughness, Median",Week 8 vs baseline,−33.9%
same,"% Change in Wrinkle Depth, Mean",Week 8 vs baseline,−58.0%
same,"% Change in Wrinkle Depth, Median",Week 8 vs baseline,−59.3%
same,"Change in Roughness, Mean",Week 8 vs baseline,−0.85
same,"Change in Roughness, Median",Week 8 vs baseline,−0.67
same,"Change in Wrinkle Depth (×10^4), Mean",Week 8 vs baseline,−0.89 ×10^4
same,"Change in Wrinkle Depth (×10^4), Median",Week 8 vs baseline,−0.79 ×10^4
same,"% Change in Roughness, Mean",Week 12 vs baseline,−39.3%
same,"% Change in Roughness, Median",Week 12 vs baseline,−40.9%
same,"% Change in Wrinkle Depth, Mean",Week 12 vs baseline,−54.1%
same,"% Change in Wrinkle Depth, Median",Week 12 vs baseline,−63.5%
same,"Change in Roughness, Mean",Week 12 vs baseline,−1.01
same,"Change in Roughness, Median",Week 12 vs baseline,−0.79
same,"Change in Wrinkle Depth (×10^4), Mean",Week 12 vs baseline,−0.92 ×10^4
same,"Change in Wrinkle Depth (×10^4), Median",Week 12 vs baseline,−0.85 ×10^4
